The subject of data set [1] is anti-fullerene antibodies (immune serum). Put plainly: Specificity of the immune response by double diffusion in agar. Type of data set: binding, mouse. Here is the method: (§1) Specificity of the response was determined by two procedures: double diffusion in agar (22) and competitive inhibition, as determined by ELISA using RSA and BSA conjugates of the fullerenes, as well as the oligo lysine derivatives. The fullerenes themselves were not soluble enough in aqueous solutions.
Specificity of the immune response first was determined by double diffusion in agar.
Confluent lines of precipitation were seen associated with wells 1-5 with a spur between wells 2 and 3, pointing toward 3, i.e., toward 1-BSA. This finding is evidence of a population of antibodies reactive with both 1 and 2, with an additional population specific for the carrier protein of the immunogen, 1-TG. The identity of precipitation with 1 and 2 is evidence for the lack of participation of the linker group, which is missing from 2. […] Anti-TG also could be detected by ELISA (below).

Data set [2] deals with anti-fullerene antibodies binding to 1-RSA. Put plainly: ELISA inhibition of antibody binding to 1-RSA. Set-up: species or system mouse. The procedure: After a total of three immunizations at 3-week intervals, confirmation of an immune response was determined by direct ELISA in which polystyrene plates (Corning) were coated with the 1-RSA conjugate (0.5 mg/ml in 0.1 M NaHCO3, pH 9), and binding of preimmune and immune sera were determined by standard procedures. Development was with horseradish peroxidase-labeled goat anti-mouse IgG (Sigma), which tested negative for crossreaction with an IgM preparation. The substrate used was o-phenylenediamine.
as §1
The adenosine conjugate had been synthesized using the same strategy used for the fullerenes, i.e., linkage to the epsilon amino groups of the lysines via an N-hydroxysuccinimide ester derivative.
Specificity also was determined by ELISA inhibition studies (FIG. 6). Binding to 1-RSA was inhibited by 1-RSA, 1-BSA, 1-TG, 3-pentalysine, 2-pentalysine, and 1-pentalysine. Inhibition by 2-pentalysine is additional evidence for nonparticipation of the linker group, i.e., specificity for the C60 moiety. […]
In general terms: An ELISA detects its analyte on a solid surface through an enzyme-linked reagent.

For data set [3], the system named is human keratinocytes and fibroblasts. Particulars: C60 suspension; cited from earlier work.
The next data set has as its system human keratinocytes. Particulars: after 6 hours; 32,000 dpm, 1.3 μM; cited from earlier work.
A further data set can be described thus: Air sensitivity. Type of data set: physicochemical. The text has this:
While previous work reported in the literature performed HPLC under aerobic conditions, (see for example Funasaka et al. 1995) these studies determined that anaerobic controls better preserved the fraction of Gd@C82 in solution. […] The fraction containing the Gd@C82 was identified using MS. The solubility of fullerenes in o-xylene is about three times that of toluene and this greatly increases the ratio of fullerenes in solution to those retained on the stationary phase. Therefore, the capacity or amount of fullerenes purified per injection was very large. Each injection contained 2 ml of saturated fullerene o-xylene solution (about 30 mg of fullerenes).

The nature of data set [4]: Atomic force microscopy of antibody binding to SWNT. The procedure:
C60 Antibodies on SWNTs were directly imaged by atomic force microscopy. SWNT ropes on mica were initially imaged, the surface was then exposed to antibody solution, and finally; the same SWNT was imaged again in air. This sequence distinguishes any preexisting surface particles from bound antibodies. Three drops of aqueous SWNT suspension (0.064 mg/mL in Triton 100×surfactant, from Tubes@Rice) were spun onto a freshly cleaved mica surface. One drop of fullerene-specific antibody(0.00125 mg/mL in 10 mM phosphate buffer, 150 mM NaCl, pH 7.3) was then deposited onto the surface. Liquid was removed by glass piper after 8 min, and the sample was dried in air. The sample was then washed with 60 drops of water while spinning to remove weakly bound, physisorbed antibody layers. The same SWNT was then imaged in FIG. 24. A significant number of objects are adsorbed on the nanotube, in previously clean regions, and on the mica substrate. […] The mica antibody images are similar in height, width, and dimpled appearance to those previously reported for monoclonal mouse IgG1 on mica (10).
In a separate experiment, we mixed an aqueous SWNT suspension with an anti-fullerene antibody solution and then imaged the SWNTs on mica. One drop of antibody solution (0.25 mg/mL) was mixed with 5 mL of SWNT suspension (0.064 mg/ml) and cooled at 5° C. for 2 h. Three drops of this mixture were spun on a freshly cleaved […] and imaged without washing.

Where two headings read alike, the source gives them in different places.

On to bovine thyroglobulin [TG], for which the “precipitation in double diffusion in agar” value is given as “line of precipitation was seen” in data set [1] (TG solution diluted 5-fold) and “no visible precipitate” in data set [1] (undiluted antigen solutions). Besides, the “inhibition of binding to 1-RSA (ELISA)” value in data set [2] was “No inhibition”.

`c12c3c4c5c1c1c6c7c2c2c8c3c3c9c4c4c%10c5c5c1c1c6c6c%11c7c2c2c7c8c3c3c8c9c4c4c9c%10c5c5c1c1c6c6c%11c2c2c7c3c3c8c4c4c9c5c1c1c6c2c3c41` [Compound C60, fullerene-C60]: the “effect on the rate of thymidine uptake” value in data set [3] is listed as “no effect”. Also, in the data set on human keratinocytes, the “applied radioactivity taken up by the keratinocytes” value is on record as “approximately 50%”.

Consider rabbit serum albumin [RSA], for which the “inhibition of binding to 1-RSA (ELISA)” value in data set [2] is on record as “No inhibition”.

As for Gd@C82(OH)x, the air sensitivity result in the data set “Air sensitivity” is “does not appear to be air sensitive”.

B1: fullerene-specific antibody: monoclonal antibody produced by hybridoma 1-10F-8A (ATCC PTA-279) (antibody, V domains shown)
VH: MGCSWGMLFLLSITAGVHCQVHLQQSGPELVRPGASVKISCKTSGYVFSSSWMNWVKQRPGQGLKWIGRIYPGNGNTNYNEKFKGKATLTADKSSNTAYMQLSSLTSVDSAVYFCATSSAYWGQGTLLTVSA
VL: DIQMTQTTSSLSASLGDRVTFSCSASQDINNYLNWYQQKPDGTIKLLIYYTSSLRSGVPSRFSGSGSGTDYSLTINNLEPEDIATYFCQQYSRLPFTFGSGTKLEIKRK
modifications: Mouse [murine]; Mouse
With B1, the “binding of antibody to SWNT (AFM image)” value in data set [4] was “antibodies on the nanotube and on mica”; in data set [4] (listed as anti-fullerene/anti-nanotube antibody) it was “bound to a nanotube”; in data set [4] (listed as monoclonal IgG C60-specific antibody), “specifically binds”.

The values above are taken from US20030113940A1, “Antibodies specific for nanotubes and related methods and compositions” (priority 2001, published 2003).
